# From patent US20220062240A1, “METHODS OF TREATING CANCER USING A CLK INHIBITOR” (BioSplice Therapeutics, Inc., priority 2018, published 2022)
# Where two headings read alike, the source gives them in different places.
# Key:
# [1] = tested on: haematopoietic & lymphoid tumors (13 cell lines); experiment: CellTiter-Glo Viability Assay, haematopoietic & lymphoid tumors; assay type: cell-based; conditions: Homo sapiens
# [2] = tested on: lung cancer (4 cell lines); experiment: CellTiter-Glo Viability Assay, lung cancer; assay type: cell-based; conditions: Homo sapiens
# CLK3 = CLK3 (Homo sapiens, UniProt P49761); experiment: CLK3 kinase activity assay (Z-lyte, Ser/Thr 18 peptide)
# [3] = tested on: ovarian cancer (4 cell lines); experiment: CellTiter-Glo Viability Assay, ovarian cancer; assay type: cell-based; conditions: Homo sapiens
# CLK2 = target: T1, CLK2 (Homo sapiens, UniProt P49760); experiment: CLK2 kinase activity assay (Z-lyte, Ser/Thr 6 peptide); assay type: biochemical
# T1 construct: purchased Thermo Fisher (Life Technologies), Z'-LYTE Kinase Assay Kits
# Protocol: All reactions were performed in duplicate.
# [4] = tested on: colorectal cancer (6 cell lines); experiment: CellTiter-Glo Viability Assay, colorectal cancer; assay type: cell-based; conditions: Homo sapiens
# [5] = tested on: prostate cancer (5 cell lines); experiment: CellTiter-Glo Viability Assay, prostate cancer; assay type: cell-based; conditions: Homo sapiens
# all 50 cell lines = experiment: CellTiter-Glo Viability Assay, average across all cell lines; assay type: cell-based; conditions: Homo sapiens, read-out: average EC50 for inhibition of cancer cell proliferation
# How it was run: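 Luminescent ATP read-out (CellTiter-Glo) after a 4-day compound exposure at 37° C served as the viability measure. Cells were seeded at 300-3,000/well, compound wells run in duplicate against DMSO controls, and EC50 values came from fitted dose-response curves.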
# [6] = tested on: liver cancer (3 cell lines); experiment: CellTiter-Glo Viability Assay, liver cancer; assay type: cell-based; conditions: Homo sapiens
# T47D = experiment: CellTiter-Glo Viability Assay, breast cancer; assay type: cell-based; conditions: Homo sapiens, 96 h
# BT-549 = experiment: CellTiter-Glo Viability Assay, breast cancer; assay type: cell-based; conditions: Homo sapiens, BT-549, 96 h
# CAMA1 = experiment: CellTiter-Glo Viability Assay, breast cancer; assay type: cell-based; conditions: Homo sapiens, CAMA-1, 96 h
# HCC1599 = experiment: CellTiter-Glo Viability Assay, breast cancer; assay type: cell-based; conditions: Homo sapiens, HCC1599, 96 h
# DU4475 = experiment: CellTiter-Glo Viability Assay, breast cancer; assay type: cell-based; conditions: Homo sapiens, DU-4475, 96 h
# ZR-75-1 = experiment: CellTiter-Glo Viability Assay, breast cancer; assay type: cell-based; conditions: Homo sapiens, ZR-75-1, 96 h
# MDA-MB-231-Luc = experiment: CellTiter-Glo Viability Assay, breast cancer; assay type: cell-based; conditions: Homo sapiens, 96 h
# MCF7 = experiment: CellTiter-Glo Viability Assay, breast cancer; assay type: cell-based; conditions: Homo sapiens, MCF7, 96 h
# [7] = tested on: pancreatic cancer (8 cell lines); experiment: CellTiter-Glo Viability Assay, pancreatic cancer; assay type: cell-based; conditions: Homo sapiens
# T1 sequence (P49760 whole entry): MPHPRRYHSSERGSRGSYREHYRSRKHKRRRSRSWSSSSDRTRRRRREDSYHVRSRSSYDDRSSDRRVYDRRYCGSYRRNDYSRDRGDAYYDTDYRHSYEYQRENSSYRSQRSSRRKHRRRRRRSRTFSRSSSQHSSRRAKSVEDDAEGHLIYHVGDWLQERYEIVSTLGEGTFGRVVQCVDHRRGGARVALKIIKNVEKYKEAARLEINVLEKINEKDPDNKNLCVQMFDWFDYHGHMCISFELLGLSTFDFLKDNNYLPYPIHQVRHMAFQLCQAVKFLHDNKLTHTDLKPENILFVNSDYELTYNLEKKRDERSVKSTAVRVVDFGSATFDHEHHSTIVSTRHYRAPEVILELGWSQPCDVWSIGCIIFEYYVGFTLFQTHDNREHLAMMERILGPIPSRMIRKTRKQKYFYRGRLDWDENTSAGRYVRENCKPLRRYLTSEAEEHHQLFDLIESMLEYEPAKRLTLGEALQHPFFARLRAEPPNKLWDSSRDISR
# Sequence of CLK3 (P49761 whole entry): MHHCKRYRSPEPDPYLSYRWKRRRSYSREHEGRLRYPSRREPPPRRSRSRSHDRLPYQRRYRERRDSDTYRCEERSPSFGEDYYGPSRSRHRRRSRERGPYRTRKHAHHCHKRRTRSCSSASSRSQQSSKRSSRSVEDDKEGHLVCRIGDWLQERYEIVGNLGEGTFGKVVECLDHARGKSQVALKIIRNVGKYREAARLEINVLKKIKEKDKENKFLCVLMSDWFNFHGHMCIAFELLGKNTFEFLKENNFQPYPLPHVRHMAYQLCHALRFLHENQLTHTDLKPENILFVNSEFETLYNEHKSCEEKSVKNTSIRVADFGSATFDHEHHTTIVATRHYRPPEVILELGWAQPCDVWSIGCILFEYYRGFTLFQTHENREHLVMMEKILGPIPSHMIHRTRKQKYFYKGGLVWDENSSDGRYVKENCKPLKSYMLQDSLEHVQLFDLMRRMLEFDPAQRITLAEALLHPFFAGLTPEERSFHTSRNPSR
smiles,measurement,setting,value
CN1CCC(N(C)c2cc(C(=O)Nc3cc4cc(-c5cnn(C)c5)ccc4cn3)ccn2)CC1 [Compound 72],EC50,"[1]; DND41, read-out: Haematopoietic & Lymphoid tumors, EC50 (μM) DND-41",0.167 µM
same,EC50,"[1]; HL-60, read-out: Haematopoietic & Lymphoid tumors, EC50 (μM) HL-60",0.453 µM
same,EC50,"[1]; JM1, read-out: Haematopoietic & Lymphoid tumors, EC50 (μM) JM1",0.047 µM
same,EC50,"[1]; JeKo-1, read-out: Haematopoietic & Lymphoid tumors, EC50 (μM) JeKo-1",0.054 µM
same,EC50,"[1]; Jurkat, read-out: Haematopoietic & Lymphoid tumors, EC50 (μM) JURKAT, Clone E6-1",0.337 µM
same,EC50,"[1]; Kasumi 1, read-out: Haematopoietic & Lymphoid tumors, EC50 (μM) KASUMI-1",0.13 µM
same,EC50,"[1]; MOLT-4, read-out: Haematopoietic & Lymphoid tumors, EC50 (μM) MOLT-4",0.189 µM
same,EC50,"[1]; MV4-11, read-out: Haematopoietic & Lymphoid tumors, EC50 (μM) MV-4-11",0.049 µM
same,EC50,"[1]; Rec1, read-out: Haematopoietic & Lymphoid tumors, EC50 (μM) REC-1",0.049 µM
same,EC50,"[1]; SU-DHL-4, read-out: Haematopoietic & Lymphoid tumors, EC50 (μM) SUDHL4",0.229 µM
same,EC50,"[1]; TF-1, read-out: Haematopoietic & Lymphoid tumors, EC50 (μM) TF-1",0.314 µM
same,EC50,"[1]; Toledo, read-out: Haematopoietic & Lymphoid tumors, EC50 (μM) TOLEDO",0.057 µM
same,EC50,"[1]; read-out: Haematopoietic & Lymphoid tumors, EC50 (μM) Loucy",0.139 µM
same,EC50,"[2]; A-427, read-out: Lung cancer, EC50 (μM) A427",0.136 µM
same,EC50,"[2]; HCC78, read-out: Lung cancer, EC50 (μM) HCC-78",0.211 µM
same,EC50,"[2]; NCI-H460, read-out: Lung cancer, EC50 (μM) NCI-H460",0.207 µM
same,EC50,"[2]; NCI-H522, read-out: Lung cancer, EC50 (μM) NCI-H522",0.119 µM
same,EC50,CLK3,19.9 nM
same,EC50,"[3]; OV-90, read-out: Ovarian cancer, EC50 (μM) OV-90",0.317 µM
same,EC50,"[3]; OVCAR-3, read-out: Ovarian cancer, EC50 (μM) OVCAR-3",0.095 µM
same,EC50,"[3]; PA-1, read-out: Ovarian cancer, EC50 (μM) PA1",0.154 µM
same,EC50,"[3]; TOV112D, read-out: Ovarian cancer, EC50 (μM) TOV-112D",0.106 µM
same,EC50,CLK2,1.3 nM
same,EC50,"[4]; DLD-1, read-out: Colorectal cancer, EC50 (μM) DLD-1",0.157 µM
same,EC50,"[4]; HCT-116, read-out: Colorectal cancer, EC50 (μM) HCT116",0.103 µM
same,EC50,"[4]; HT-29, read-out: Colorectal cancer, EC50 (μM) HT29",0.257 µM
same,EC50,"[4]; SW48, read-out: Colorectal cancer, EC50 (μM) SW48",0.057 µM
same,EC50,"[4]; SW480, read-out: Colorectal cancer, EC50 (μM) SW480",0.129 µM
same,EC50,"[4]; SW-620, read-out: Colorectal cancer, EC50 (μM) SW620",0.072 µM
same,EC50,"[5]; 22Rv1, read-out: Prostate cancer EC50 22Rv1",142 nM
same,EC50,"[5]; DU-145, read-out: Prostate cancer EC50 Du-145",232 nM
same,EC50,"[5]; LNCaP-Clone-FGC, read-out: Prostate cancer EC50 LNCap clone FGC",257 nM
same,EC50,"[5]; PC-3, read-out: Prostate cancer EC50 PC3",174 nM
same,EC50,"[5]; VCaP, read-out: Prostate cancer EC50 VCaP (Sigma)",509 nM
same,EC50,all 50 cell lines,206 nM
same,EC50,"[6]; HepG2, read-out: Liver cancer, EC50 HEPG2",136 nM
same,EC50,"[6]; PLC-PRF-5, read-out: Liver cancer, EC50 PLC/PRF/5",386 nM
same,EC50,"[6]; SNU-398, read-out: Liver cancer, EC50 SNU398",51 nM
same,EC50,T47D,506 nM
same,EC50,BT-549,186 nM
same,EC50,CAMA1,294 nM
same,EC50,HCC1599,147 nM
same,EC50,DU4475,121 nM
same,EC50,ZR-75-1,284 nM
same,EC50,MDA-MB-231-Luc,230 nM
same,EC50,MCF7,670 nM
same,EC50,"[7]; BXPC-3, read-out: Pancreatic cancer, EC50 BxPC3",310 nM
same,EC50,"[7]; CAPAN-1, read-out: Pancreatic cancer, EC50 Capan1",215 nM
same,EC50,"[7]; Capan-2, read-out: Pancreatic cancer, EC50 Capan2",409 nM
same,EC50,"[7]; MIA PaCa-2, read-out: Pancreatic cancer, EC50 MIA PaCa-2",88 nM
same,EC50,"[7]; PANC-1, read-out: Pancreatic cancer, EC50 PANC-1",276 nM
same,EC50,"[7]; Panc 05.04, read-out: Pancreatic cancer, EC50 PANC 05.04",226 nM
same,EC50,"[7]; read-out: Pancreatic cancer, EC50 UPAFII",125 nM
